Here are results for 41 molecules from patent US5385842A, “Anthraquinones as inhibitors of sulfide production from sulfate-reducing bacteria” (E. I. Du Pont de Nemours and Company, priority 1993, dated 1995).

Molecules are shown by their SMILES. Where a name gives a salt, the structure may show the parent alone.

The test system of the experiment is Desulfovibrio desulfuricans G100A. The experiment in a line: microbe, parasite or virus in culture. It is filed as cell-based. The conditions noted are these: for inhibition at 30 ppm / inhibition at 10 ppm / inhibition at 10 µg/mL: Desulfovibrio desulfuricans, G100A, read-out: % Inhib. (inhibition of sulfide production).

The term inhibition denotes the percentage by which the read-out fell short of the control. Turning to `Oc1cccc2cc3cccc(O)c3c(O)c12` [1,8-Dihydroxyanthranol, 1,8-Dihydroxy-9-anthranol], the inhibition at 30 ppm was 88.3%.
Turning to `O=C1c2ccccc2C(=O)c2c1cccc2N(NS(=O)(=O)O)S(=O)(=O)O` [1-(9,10-Dihydro-9,10-dioxo-1-anthracenyl)-1,2-hydrazinedisulfonic acid, di Na salt], the inhibition at 10 ppm is 10%.
With `O=C1c2ccccc2C(=O)c2c(SBr)cccc21` [1-(Bromothio)anthraquinone], the inhibition at 30 ppm is 6.5%.
Regarding `CNc1cccc2c1C(=O)c1ccccc1C2=O` [1-(Methylamino)anthraquinone], the inhibition at 10 µg/mL turned out to be 19.1%.
In the case of `Nc1c(Br)cc(Br)c2c1C(=O)c1ccccc1C2=O` [1-Amino-2,4-dibromoanthraquinone], the inhibition at 10 ppm was found to be 44.6%.
On to `NCCSc1cc(O)c2c(c1N)C(=O)c1ccccc1C2=O` [1-Amino-2-(2-aminoethylthio)-4-hydroxyanthraquinone], for which the inhibition at 30 ppm was found to be 24.7%.
Consider `Nc1c(Br)cc(O)c2c1C(=O)c1ccccc1C2=O` [1-Amino-2-bromo-4-hydroxyanthraquinone], for which the inhibition at 30 ppm is 6.5%.
On the same count and under the same terms, to `CNc1ccc(N)c2c1C(=O)c1ccccc1C2=O` [1-Amino-4-(methylamino)anthraquinone] belongs 0%.
With `Nc1ccc(NC(=O)c2ccccc2)c2c1C(=O)c1ccccc1C2=O` [1-Amino-4-benzamidoanthraquinone, N-(4-Amino-9,10-dihydro-9,10-dioxo-1-anthracenyl)-benzamide], the inhibition at 30 ppm is 0%.
`Cc1cc(Br)c2c(c1N)C(=O)c1ccccc1C2=O` [1-Amino-4-bromo-2-methylanthraquinone]: the inhibition at 10 µg/mL came to 8%.
For `Nc1c(S(=O)(=O)O)cc(Br)c2c1C(=O)c1ccccc1C2=O` [1-Amino-4-bromo-9,10-dihydro-9,10-dioxo-2-anthracene-sulfonic acid, Na salt], the inhibition at 10 ppm was found to be 4.3%.
On to `Cc1cc(Cl)c2c(c1N)C(=O)c1ccccc1C2=O` [1-Amino-4-chloro-2-methylanthraquinone], for which the inhibition at 30 ppm stood at 5.2%.
With `COc1ccc(N)c2c1C(=O)c1ccccc1C2=O` [1-Amino-4-methoxyanthraquinone], the inhibition at 10 ppm was found to be 57.1%.
In the case of `Nc1cccc2c1C(=O)c1cc(Cl)c(Cl)cc1C2=O` [1-Amino-6,7-dichloroanthraquinone], the inhibition at 30 ppm amounted to 22.9%.
Regarding `Cc1ccc(S(=O)(=O)Nc2cc(S(=O)(=O)O)c(N)c3c2C(=O)c2ccccc2C3=O)cc1` [1-Amino-9,10-dihydro-4[[(4-methylphenyl)sulfonyl]-amino]-9,10-dioxo-2-anthracenesulfonic acid, Na salt], the inhibition at 10 ppm was 3.9%.
Consider `N#[N+]c1cccc2c1C(=O)c1ccccc1C2=O` [1-Aminoanthraquinone diazonium salt], for which the inhibition at 30 ppm turned out to be 20.8%.
`Nc1c(S(=O)(=O)O)ccc2c1C(=O)c1ccccc1C2=O` [1-Aminoanthraquinone-2-sulfonic acid, 1-Amino-9,10-dihydro-9,10-dioxo-2-anthracenesulfonic acid]: the inhibition at 30 ppm turned out to be 37.5%.
As to `Nc1cccc2c1C(=O)c1ccccc1C2=O` [1-Aminoanthraquinone], the “inhibition of sulfide production (in words)” value is reported as “inhibited sulfide formation” and the inhibition at 10 ppm turned out to be 28.4%. The “% inhibition of sulfide formation” value (Table III, Example 3) was found to be 72%.
Take `O=C1c2ccccc2C(=O)c2c1cccc2S(=O)(=O)O` [1-Anthraquinonesulfonic acid, Na salt]: the inhibition at 30 ppm is 3.9%.
Consider `O=C(Nc1ccc(Cl)c2c1C(=O)c1ccccc1C2=O)c1ccccc1` [1-Benzamido-4-chloroanthraquinone, N-(4-Chloro-9,10-dihydro-9,10-dioxo-1-anthracenyl)-benzamide], for which the inhibition at 30 ppm is 8.6%.
Same read-out and setting: to `O=C(Nc1cccc2c1C(=O)c1cccc(Cl)c1C2=O)c1ccccc1` [1-Benzamido-5-chloroanthraquinone, N-(5-Chloro-9,10-dihydro-9,10-dioxo-1-anthracenyl)-benzamide] belongs 10.4%; to `CNc1ccc(Br)c2c1C(=O)c1ccccc1C2=O` [1-Bromo-4-(methylamino)anthraquinone], 0%.
As to `Cc1ccc(Nc2ccc(O)c3c2C(=O)c2ccccc2C3=O)cc1` [1-Hydroxy-4-(p-toluidino)-anthraquinone, 1-Hydroxy-4-[(4-methylphenyl)amino]-9,10-anthracene-dione], the inhibition at 30 ppm is 3.9%.
Consider `O=C1c2ccccc2C(=O)c2c(O)cccc21` [1-Hydroxyanthraquinone], for which the inhibition at 10 ppm is 59.3%.
`Cc1ccc2c(c1-c1c(C)ccc3c1C(=O)c1ccccc1C3=O)C(=O)c1ccccc1C2=O` [2,2'-Dimethyl-1,1'-bianthraquinone, 2,2'-Dimethyl-[1,1'-bianthracene]-9,9',10,10'-tetrone]: the inhibition at 30 ppm is 59.7%.
In the case of `Cc1c(C)c(O)c2c(c1O)C(=O)c1ccccc1C2=O` [2,3-dimethyl-1,4-dihydroxyanthraquinone], the inhibition at 30 ppm was 5.7%.
`O=C1c2c(Br)cc(Br)c(O)c2C(=O)c2c(O)c(Br)cc(Br)c21` [2,4,5,7-Tetrabromochrysazin, 2,4,5,7-Tetrabromo-1,8-dihydroxy-9,10-anthracenedione]: the inhibition at 10 ppm stood at 40.6%.
As to `Nc1ccc2c(c1)C(=O)c1ccc(N)cc1C2=O` [2,6-Diaminoanthraquinone], the inhibition at 10 ppm was 27.2%.
Same read-out and setting: with `O=C1c2ccc(O)cc2C(=O)c2ccc(O)cc21` [2,6-Dihydroxyanthraquinone] the figure was 28.2%.
In the case of `CC(C)(C)C(=O)Nc1ccc2c(c1)C(=O)c1ccccc1C2=O` [2-(2,2,2-Trimethylpropionamido)anthraquinone], the inhibition at 30 ppm came to 48.1%.
Same read-out and setting: with `O=C1c2ccccc2C(=O)c2cc(NC(=O)C3CC3)ccc21` [2-(Cyclopropylcarboxamido)anthraquinone] the figure was 2.6%; with `O=C1c2ccccc2C(=O)c2cc(CO)ccc21` [2-(Hydroxymethyl)anthraquinone], 87%; with `Nc1cc2c(cc1Cl)C(=O)c1ccccc1C2=O` [2-Amino-3-chloroanthraquinone], 3.9%.
The same measure, in the same setting: to `Nc1cc2c(cc1O)C(=O)c1ccccc1C2=O` [2-Amino-3-hydroxyanthraquinone] belongs 11.4%.
Turning to `Nc1ccc2c(c1)C(=O)c1ccccc1C2=O` [2-Aminoanthraquinone], the inhibition at 10 ppm was 30.4%.
With `Cc1cc2c(cc1Br)C(=O)c1ccccc1C2=O` [2-Bromo-3-methylanthraquinone], the inhibition at 30 ppm stood at 26%.
Take `O=C1c2ccccc2C(=O)c2cc(Cl)ccc21` [2-Chloroanthraquinone]: the inhibition at 30 ppm was determined as 98.7%.
For `CCc1ccc2c(c1)C(=O)c1ccccc1C2=O` [2-Ethylanthraquinone], the inhibition at 10 µg/mL was 57.1%.
Consider `COc1cc2c(cc1C)C(=O)c1ccccc1C2=O` [2-Methoxy-3-methyl-9,10-anthracenedione], for which the inhibition at 30 ppm stood at 5%.
On to `Cc1ccc2c(c1[N+](=O)[O-])C(=O)c1ccccc1C2=O` [2-Methyl-1-nitroanthraquinone], for which the inhibition at 30 ppm turned out to be 50%.
In the case of `Cc1ccc2c(c1)C(=O)c1ccccc1C2=O` [2-Methylanthraquinone], the inhibition at 30 ppm worked out at 10.4%.
